Here are results for 3 compounds from patent publication US20240034765A1, “SCG2 NEUROPEPTIDES AND USES THEREOF” (PRESIDENT AND FELLOWS OF HARVARD COLLEGE, priority 2020, published 2024).

Series [1] concerns hM3DGq-expressing neurons. Put plainly: Cell-attached recording of CA1 PC in slice after bath application of CNO. To be noted: cell-attached mode. The class given is cell-based, mice.
The subject of series [2] is CA1. Briefly: Cell health in CA1 24 h post-KA (Hoechst, NeuN, cleaved-caspase 3 immunostaining). It counts as in vivo, mice. To be noted: within 24 h of KA injection. As for the experimental part:
FIG. 8A-8Q is a series of schematics, images, and graphs showing IN-to-CA1 PC paired recordings and cell health parameters in 24 h post-KA condition. FIG. 8A and FIG. 8G are schematics of the genetic strategy to label PV-INs (PV^Cre; Ai14; FIG. 8A) or CCK-INs (D1×5/6^Flp; CCK^Cre; Ai65; FIG. 8G). FIG. 8B and FIG. 8H are representative images of tdTomato fluorescence in the CA1 field. Scale: 100 μm. N=2 mice per line. FIG. 8C and FIG. 8I are bar graphs showing quantification of the fraction of (FIG. 8C) PV- or (FIG. 8I) CCK-to-CA1 PC synaptically-connected pairs from the overall number of pairs recorded in both vehicle (Veh.) and 24 h post-KA mice. In FIG. 8C, Veh., n=13/22; KA, n=19/30; in FIG. 8I, Veh., n=16/40; KA, […], where n=number of connections/total pairs. FIG. 8D and FIG. 8J are dot plots showing quantification of the maximum firing rate of (FIG. 8D) PV- or (FIG. 8J) CCK-INs from connected pairs. […] FIG. 8E and FIG. 8K are dot plots showing quantification of spike adaptation ratio of (FIG. 8E) PV- or (FIG. 8J) CCK-INs from connected pairs as in FIG. 8D and FIG. 8J, respectively. FIG. 8F and FIG. 8L are line graphs showing quantification of paired pulse ratios (PPRs) of uIPSCs at the indicated interstimulus intervals (ISI) for (FIG. 8F) PV- (Veh., n=13/6; KA, n=19/7) or (FIG. 8L) CCK- (Veh., n=16/9; KA, n=16/4) to-CA1 PC connected pairs, where n=number of pairs/number of mice. […]

The test system of series [3] is CA1 neurons. Briefly: AAV-based activity reporter mKate2 labelling of recently activated CA1 neurons. The class given is in vivo, mice. To be noted: 24 h post-KA injection. The procedure: First, tests were performed to determine whether either of these forms of perisomatic inhibition (by PV-expressing INs and CCK-expressing INs) are differentially regulated onto Fos-expressing neurons compared to neighboring non-Fos-expressing neurons. Mice were exposed to a series of novel environments, which robustly activated Fos in a sparse subset of CA1 PCs (see e.g., FIG. 1A, FIG. 7A-FIG. 7D). To label these Fos-expressing neurons, an adeno-associated virus (AAV)-based reporter was used that expresses the fluorescent protein mKate2 selectively in recently activated neurons (see e.g., FIG. 1B); see e.g., Fenno et al. Nat Methods 11, 763-772, (2014), the content of which is incorporated herein by reference in its entirety. Using this reporter, a significant increase was detected in the number of recently activated neurons (mKate2^+) in mice exposed to 2-3 days (see e.g., FIG. 1D) of novel environments (NE) compared to control mice housed under standard (Strd) conditions (see e.g., FIG. 1C). This 2-3d timepoint was therefore appropriate for assessing the long-lasting effects of Fos and its late-response target gene(s), which were usually activated within 1-12 hours (h) of stimulus onset (see e.g., FIG. 1D).
Intraperitoneal (i.p.) injections.
Histology. Mice were anaesthetized with 10 mg/mL ketamine and 1 mg/mL xylazine in phosphate buffered saline (PBS) via i.p. injection. […]

Series [4] deals with specific cell types. To be noted: cited from earlier work.

`C[N+]1([O-])CCN(C2=Nc3cc(Cl)ccc3Nc3ccccc32)CC1` [CNO, clozapine N-oxide]: the “firing rate of hM3DGq-expressing CA1 PC” value in series [1] was “firing rate increases”.
Consider `C=C(C)[C@H]1CN[C@H](C(=O)O)[C@H]1CC(=O)O` [kainic acid], for which the “cell death (Hoechst+, NeuN+, cleaved-caspase+ cells per 40-μm section, all layers of CA1)” value in series [2] is reported as “did not induce cell death”. In addition, the “average percentage of mKate2+ neurons over total number of DAPI cells” value in series [3] is on record as 96%.
With “secretoneurin (TNEIVEEQYTPQSLATLESVFQELGKLTGPNNQ; listed as Homo sapiens) [33 aa]”, the “chemotaxic effects on specific cell types” value in series [4] is given as “chemotaxic effects”.
